From patent publication US20150296790A1, “SILICON-CONTAINING COMPOUND AQUEOUS SOLUTION AND ANTIBACTERIAL/ANTIVIRAL AGENT INCLUDING SAID SOLUTION” (JEX CO., LTD., priority 2012, published 2015)

Experiment: Solubility of Silicon-Containing Compound E in aqueous CD solutions (clarity and stability, visual)
Format: physicochemical
Set-up: key to Solubility of Compound E: Stability: OK: When the aqueous solutions of the CD and the Silicon-Containing Compound E did not exhibit the conditions such as presence of precipitates and deposits, the solutions were considered as stable; NG: When the aqueous solutions of the CD and the Silicon-Containing Compound E exhibited the conditions such as presence of precipitates and deposits, the solutions were not considered as stable; key to Solubility of Compound E: Clarity: When the aqueous solutions of the CD and the Silicon-Containing Compound E were clear, the solutions were rated as “OK”; When the aqueous solutions of the CD and the Silicon-Containing Compound E were not clear, the solutions were rated as “NG”
Settings: purified water
Experimental: To determine “Solubility of Compound E” in the tables, the Silicon-Containing Compound E as another solute was added at respective ratios shown in the respective tables (see “Ratio of Compound E” in the tables) to the respective aqueous CD solutions after evaluation of the solubility of CD, and then the mixture was stirred on a shaker to prepare the respective aqueous solutions of the CD and the Silicon-Containing Compound E. Immediately after preparation of the aqueous solutions of the CD and the Silicon-Containing Compound E, the clarity of the aqueous solutions was visually evaluated. When the aqueous solutions of the CD and the Silicon-Containing Compound E were clear, the solutions were rated as “OK”. When the aqueous solutions of the CD and the Silicon-Containing Compound E were not clear, the solutions were rated as “NG”. “Stability” in “Solubility of Compound E” in the tables was determined by allowing the respective aqueous solutions of the CD and the Silicon-Containing Compound E after preparation to stand at ambient temperature for a predetermined period and then visually evaluating the conditions (such as presence of precipitates and deposits) of the solutions.

[1] = DEXYPEARL 1 w/w %, Compound E 0.1 w/w %
[2] = DEXYPEARL 2 w/w %, Compound E 0.1 w/w %
[3] = DEXYPEARL 3 w/w %, Compound E 0.1 w/w %
[4] = DEXYPEARL 4 w/w %, Compound E 0.1 w/w %
[5] = DEXYPEARL 5 w/w %, Compound E 0.1 w/w %
[6] = DEXYPEARL 6 w/w %, Compound E 0.1 w/w %
[7] = DEXYPEARL 7 w/w %, Compound E 0.1 w/w %
[8] = DEXYPEARL 8 w/w %, Compound E 0.1 w/w %
[9] = DEXYPEARL 9 w/w %, Compound E 0.1 w/w %
[10] = DEXYPEARL 10 w/w %, Compound E 0.1 w/w %
[11] = DEXYPEARL 20 w/w %, Compound E 0.1 w/w %
[12] = DEXYPEARL 30 w/w %, Compound E 0.1 w/w %
[13] = DEXYPEARL 40 w/w %, Compound E 0.1 w/w %
[14] = ISOELEAT 1 w/w %, Compound E 0.1 w/w %
[15] = ISOELEAT 2 w/w %, Compound E 0.1 w/w %
[16] = ISOELEAT 3 w/w %, Compound E 0.1 w/w %
[17] = ISOELEAT 4 w/w %, Compound E 0.1 w/w %
[18] = ISOELEAT 5 w/w %, Compound E 0.1 w/w %
[19] = ISOELEAT 6 w/w %, Compound E 0.1 w/w %
[20] = ISOELEAT 7 w/w %, Compound E 0.1 w/w %
[21] = ISOELEAT 8 w/w %, Compound E 0.1 w/w %
[22] = ISOELEAT 9 w/w %, Compound E 0.1 w/w %
[23] = ISOELEAT 10 w/w %, Compound E 0.1 w/w %
[24] = ISOELEAT 20 w/w %, Compound E 0.1 w/w %
[25] = ISOELEAT 30 w/w %, Compound E 0.1 w/w %
[26] = ISOELEAT 40 w/w %, Compound E 0.1 w/w %
[27] = ISOELEAT 50 w/w %, Compound E 0.1 w/w %
[28] = α-CD 1 w/w %, Compound E 0.1 w/w %
[29] = α-CD 1 w/w %, Compound E 0.2 w/w %
[30] = α-CD 1 w/w %, Compound E 0.3 w/w %
[31] = α-CD 1 w/w %, Compound E 0.4 w/w %
[32] = α-CD 1 w/w %, Compound E 0.5 w/w %
[33] = α-CD 1 w/w %, Compound E 0.6 w/w %
[34] = α-CD 1 w/w %, Compound E 0.7 w/w %
[35] = α-CD 1 w/w %, Compound E 0.8 w/w %
[36] = α-CD 1 w/w %, Compound E 0.9 w/w %
[37] = α-CD 1 w/w %, Compound E 1 w/w %
[38] = α-CD 7 w/w %, Compound E 0.1 w/w %
[39] = α-CD 7 w/w %, Compound E 0.2 w/w %
[40] = α-CD 7 w/w %, Compound E 0.3 w/w %
[41] = α-CD 7 w/w %, Compound E 0.4 w/w %
[42] = α-CD 7 w/w %, Compound E 0.5 w/w %
[43] = α-CD 7 w/w %, Compound E 0.6 w/w %
[44] = α-CD 7 w/w %, Compound E 0.7 w/w %
[45] = α-CD 7 w/w %, Compound E 0.8 w/w %
[46] = α-CD 7 w/w %, Compound E 0.9 w/w %
[47] = α-CD 7 w/w %, Compound E 1 w/w %
[48] = β-CD 1 w/w %, Compound E 0.1 w/w %

CCCCCCCCCCCCCCCCCC[N+](C)(C)CCC[Si](OCC)(OCC)OCC.[Cl-] [Compound E, Octadecyl dimethyl(3-triethoxysilylpropyl)ammonium chloride]
Solubility of Compound E: Clarity [1]: OK | Solubility of Compound E: Stability [1]: OK | Solubility of Compound E: Clarity [2]: OK | Solubility of Compound E: Stability [2]: OK | Solubility of Compound E: Clarity [3]: OK | Solubility of Compound E: Stability [3]: OK | Solubility of Compound E: Clarity [4]: OK | Solubility of Compound E: Stability [4]: OK | Solubility of Compound E: Clarity [5]: OK | Solubility of Compound E: Stability [5]: OK | Solubility of Compound E: Clarity [6]: OK | Solubility of Compound E: Stability [6]: OK | Solubility of Compound E: Clarity [7]: OK | Solubility of Compound E: Stability [7]: OK | Solubility of Compound E: Clarity [8]: OK | Solubility of Compound E: Stability [8]: OK | Solubility of Compound E: Clarity [9]: OK | Solubility of Compound E: Stability [9]: OK | Solubility of Compound E: Clarity [10]: OK | Solubility of Compound E: Stability [10]: OK | Solubility of Compound E: Clarity [11]: OK | Solubility of Compound E: Stability [11]: NG | Solubility of Compound E: Clarity [12]: NG | Solubility of Compound E: Stability [12]: NG | Solubility of Compound E: Clarity [13]: NG | Solubility of Compound E: Stability [13]: NG | Solubility of Compound E: Clarity [14]: OK | Solubility of Compound E: Stability [14]: OK | Solubility of Compound E: Clarity [15]: OK | Solubility of Compound E: Stability [15]: OK | Solubility of Compound E: Clarity [16]: OK | Solubility of Compound E: Stability [16]: OK | Solubility of Compound E: Clarity [17]: OK | Solubility of Compound E: Stability [17]: OK | Solubility of Compound E: Clarity [18]: OK | Solubility of Compound E: Stability [18]: OK | Solubility of Compound E: Clarity [19]: OK | Solubility of Compound E: Stability [19]: OK | Solubility of Compound E: Clarity [20]: OK | Solubility of Compound E: Stability [20]: OK | Solubility of Compound E: Clarity [21]: OK | Solubility of Compound E: Stability [21]: OK | Solubility of Compound E: Clarity [22]: OK | Solubility of Compound E: Stability [22]: OK | Solubility of Compound E: Clarity [23]: NG | Solubility of Compound E: Stability [23]: NG | Solubility of Compound E: Clarity [24]: NG | Solubility of Compound E: Stability [24]: NG | Solubility of Compound E: Clarity [25]: NG | Solubility of Compound E: Stability [25]: NG | Solubility of Compound E: Clarity [26]: NG | Solubility of Compound E: Stability [26]: NG | Solubility of Compound E: Clarity [27]: NG | Solubility of Compound E: Stability [27]: NG | Solubility of Compound E: Clarity [28]: NG | Solubility of Compound E: Stability [28]: OK | Solubility of Compound E: Clarity [29]: NG | Solubility of Compound E: Stability [29]: OK | Solubility of Compound E: Clarity [30]: NG | Solubility of Compound E: Stability [30]: OK | Solubility of Compound E: Clarity [31]: NG | Solubility of Compound E: Stability [31]: OK | Solubility of Compound E: Clarity [32]: NG | Solubility of Compound E: Stability [32]: OK | Solubility of Compound E: Clarity [33]: NG | Solubility of Compound E: Stability [33]: OK | Solubility of Compound E: Clarity [34]: NG | Solubility of Compound E: Stability [34]: OK | Solubility of Compound E: Clarity [35]: NG | Solubility of Compound E: Stability [35]: NG | Solubility of Compound E: Clarity [36]: NG | Solubility of Compound E: Stability [36]: NG | Solubility of Compound E: Clarity [37]: NG | Solubility of Compound E: Stability [37]: NG | Solubility of Compound E: Clarity [38]: NG | Solubility of Compound E: Stability [38]: OK | Solubility of Compound E: Clarity [39]: NG | Solubility of Compound E: Stability [39]: OK | Solubility of Compound E: Clarity [40]: NG | Solubility of Compound E: Stability [40]: OK | Solubility of Compound E: Clarity [41]: NG | Solubility of Compound E: Stability [41]: OK | Solubility of Compound E: Clarity [42]: NG | Solubility of Compound E: Stability [42]: OK | Solubility of Compound E: Clarity [43]: NG | Solubility of Compound E: Stability [43]: OK | Solubility of Compound E: Clarity [44]: NG | Solubility of Compound E: Stability [44]: OK | Solubility of Compound E: Clarity [45]: NG | Solubility of Compound E: Stability [45]: OK | Solubility of Compound E: Clarity [46]: NG | Solubility of Compound E: Stability [46]: OK | Solubility of Compound E: Clarity [47]: NG | Solubility of Compound E: Stability [47]: OK | Solubility of Compound E: Clarity [48]: NG | Solubility of Compound E: Stability [48]: OK | Solubility of Compound E: Clarity (β-CD 1 w/w %, Compound E 0.2 w/w %): NG
